In ChEMBL document CHEMBL5338722, “Optical-Controlled Kinetic Switch: Fine-Tuning of the Residence Time of an Antagonist Binding to the Vasopressin V2 Receptor in In Vitro, Ex Vivo, and In Vivo Models of ADPKD” (J Med Chem, 2023):

Columns and labels:
Format in all cases: cell-based
Vasopressin V2 receptor [1] = molecular target: T1, Vasopressin V2 receptor (Homo sapiens, UniProt P30518); assay: Displacement of conivaptan-red fluorescent probe from SNAP-tagged human vasopressin V2 receptor expressed in HEK293 cells compound pre-illuminated for 10 mins with light at 365 nm and further incubated for 1 hr by HTRF assay
T1 sequence (P30518 whole entry): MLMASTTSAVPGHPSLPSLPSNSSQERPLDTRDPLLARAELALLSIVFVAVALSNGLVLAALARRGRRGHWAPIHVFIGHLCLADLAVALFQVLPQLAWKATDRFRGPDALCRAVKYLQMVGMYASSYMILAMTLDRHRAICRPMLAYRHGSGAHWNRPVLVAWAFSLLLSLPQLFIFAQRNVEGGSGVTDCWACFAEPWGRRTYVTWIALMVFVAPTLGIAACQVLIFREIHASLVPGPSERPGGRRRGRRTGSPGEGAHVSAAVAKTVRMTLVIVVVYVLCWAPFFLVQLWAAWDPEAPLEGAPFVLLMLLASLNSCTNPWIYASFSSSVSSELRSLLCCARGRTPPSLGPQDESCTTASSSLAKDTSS

Vasopressin V2 receptor [2] = molecular target: T1, Vasopressin V2 receptor; assay: Displacement of conivaptan-red fluorescent probe from SNAP-tagged human vasopressin V2 receptor expressed in HEK293 cells at 10 uM compound pre-illuminated for 10 mins with light at 365 nm and further incubated for 1 hr by HTRF assay relative to control; conditions: filed as antagonist
Vasopressin V2 receptor [3] = molecular target: T1, Vasopressin V2 receptor; assay: Displacement of conivaptan-red fluorescent probe from SNAP-tagged human vasopressin V2 receptor expressed in HEK293 cells compound pre-illuminated for 10 mins with light at 435 nm and further incubated for 1 hr by HTRF assay
Vasopressin V2 receptor [4] = molecular target: T1, Vasopressin V2 receptor; assay: Displacement of conivaptan-red fluorescent probe from SNAP-tagged human vasopressin V2 receptor expressed in HEK293 cells at 10 uM compound pre-illuminated for 10 mins with light at 435 nm and further incubated for 1 hr by HTRF assay relative to control

`Cc1cccc(/N=N\c2ccc(C(=O)N3Cc4cccn4Cc4ccccc43)c(Cl)c2)c1` was tested, and the Ki (Vasopressin V2 receptor [1]) was 134 nM.
With `O=C(c1ccc(/N=N\c2ccc(F)cc2)cc1Cl)N1Cc2cccn2Cc2ccccc21` the Ki (Vasopressin V2 receptor [1]) was 289 nM.
For `O=C(c1ccc(/N=N\c2ccccc2)cc1Cl)N1Cc2cccn2Cc2ccccc21`, the Ki (Vasopressin V2 receptor [1]) was 93 nM.
`Cc1ccc(F)cc1/N=N\c1ccc(C(=O)N2Cc3cccn3Cc3ccccc32)c(Cl)c1` gave a Ki (Vasopressin V2 receptor [1]) of 1700 nM.
For `O=C(c1ccc(/N=N\c2ccc(-c3ccccc3)cc2)cc1Cl)N1Cc2cccn2Cc2ccccc21`, the inhibition (Vasopressin V2 receptor [2]) was 51%.
`O=C(c1ccc(/N=N\c2ccccc2-c2ccccc2)cc1Cl)N1Cc2cccn2Cc2ccccc21` was tested, and the Ki (Vasopressin V2 receptor [1]) was 787 nM.
For `O=C(c1ccc(/N=N/c2ccccc2-c2ccccc2)cc1Cl)N1Cc2cccn2Cc2ccccc21`, the Ki (Vasopressin V2 receptor [3]) was 279 nM.
`O=C(c1ccc(/N=N/c2ccc(-c3ccccc3)cc2)cc1Cl)N1Cc2cccn2Cc2ccccc21` was tested, and the inhibition (Vasopressin V2 receptor [4]) was 33%.
`O=C(c1ccc(/N=N/c2ccc(F)cc2)cc1Cl)N1Cc2cccn2Cc2ccccc21` gave a Ki (Vasopressin V2 receptor [3]) of 851 nM.
Compound `Cc1ccc(F)cc1/N=N/c1ccc(C(=O)N2Cc3cccn3Cc3ccccc32)c(Cl)c1` has a Ki (Vasopressin V2 receptor [3]) of 577 nM.
`Cc1ccccc1/N=N/c1ccc(C(=O)N2Cc3cccn3Cc3ccccc32)c(Cl)c1` showed a Ki (Vasopressin V2 receptor [3]) of 432 nM.
